We go through six compounds from PMC3216989, “Bluetongue Virus VP1 Polymerase Activity In Vitro: Template Dependency, Dinucleotide Priming and Cap Dependency” (PLoS ONE, 2011).

SMILES strings stand for the structures.

The target of this test is T1, BTV VP1 (his-tagged VP1) (Bluetongue virus (serotype 10 / American isolate), UniProt P13840).
T1 construct: gene Segment-1; tag cleavage not mentioned
The test is described as follows: in vitro polymerase assay, [α-32P]CTP incorporation into dsRNA, native PAGE. Type of test: biochemical. The note with it: 20 pmol in 50 µl, uncapped T7 S9 ssRNA template, Mg2+, Mn2+, pH 7.4, 37 °C, 5 h.

T1 sequence (P13840 whole entry): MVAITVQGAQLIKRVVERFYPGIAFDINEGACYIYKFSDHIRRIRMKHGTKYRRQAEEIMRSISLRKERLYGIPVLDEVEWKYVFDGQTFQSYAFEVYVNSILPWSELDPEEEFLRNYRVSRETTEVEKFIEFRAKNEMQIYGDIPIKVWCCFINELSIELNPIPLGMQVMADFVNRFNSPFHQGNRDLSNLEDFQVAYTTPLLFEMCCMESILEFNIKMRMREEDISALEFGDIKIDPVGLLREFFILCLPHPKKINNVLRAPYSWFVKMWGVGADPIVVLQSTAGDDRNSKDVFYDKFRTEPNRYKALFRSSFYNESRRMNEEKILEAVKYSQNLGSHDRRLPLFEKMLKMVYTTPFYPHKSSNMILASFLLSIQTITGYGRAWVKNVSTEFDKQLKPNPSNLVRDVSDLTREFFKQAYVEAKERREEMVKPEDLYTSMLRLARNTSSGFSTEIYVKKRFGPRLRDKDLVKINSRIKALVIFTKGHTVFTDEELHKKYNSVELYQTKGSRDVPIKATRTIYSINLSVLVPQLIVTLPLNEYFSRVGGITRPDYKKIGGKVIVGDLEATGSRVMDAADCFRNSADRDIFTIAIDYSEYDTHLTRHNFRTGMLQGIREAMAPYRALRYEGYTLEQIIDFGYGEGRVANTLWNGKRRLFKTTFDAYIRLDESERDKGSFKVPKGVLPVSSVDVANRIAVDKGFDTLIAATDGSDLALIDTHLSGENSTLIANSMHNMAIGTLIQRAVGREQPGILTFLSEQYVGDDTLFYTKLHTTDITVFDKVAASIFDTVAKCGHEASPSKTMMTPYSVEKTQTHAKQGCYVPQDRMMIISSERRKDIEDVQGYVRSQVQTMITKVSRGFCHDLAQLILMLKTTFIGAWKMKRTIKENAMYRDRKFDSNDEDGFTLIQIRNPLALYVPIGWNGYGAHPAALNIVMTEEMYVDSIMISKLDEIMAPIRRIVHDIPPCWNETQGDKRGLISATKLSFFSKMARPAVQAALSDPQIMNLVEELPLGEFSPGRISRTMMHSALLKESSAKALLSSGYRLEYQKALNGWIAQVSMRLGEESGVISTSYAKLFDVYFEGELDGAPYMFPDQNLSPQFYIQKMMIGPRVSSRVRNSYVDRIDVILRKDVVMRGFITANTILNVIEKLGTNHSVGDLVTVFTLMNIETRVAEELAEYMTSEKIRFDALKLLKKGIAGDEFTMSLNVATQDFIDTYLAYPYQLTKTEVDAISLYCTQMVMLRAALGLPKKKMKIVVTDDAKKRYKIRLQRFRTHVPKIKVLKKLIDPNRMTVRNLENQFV

In the case of `Nc1nc2c(ncn2[C@@H]2O[C@H](COP(=O)(O)O[C@H]3[C@@H](O)[C@H](n4cnc5c(=O)[nH]c(N)nc54)O[C@@H]3CO)[C@@H](O)[C@H]2O)c(=O)[nH]1` [GpG], the fold of control entry (priming dinucleotide, additional allosteric effect proposed) was “GpG and ApG, which complement only the last nucleotide”.
Consider `CO[C@H]1[C@@H](O)[C@H](n2c[n+](C)c3c(=O)[nH]c(N)nc32)O[C@@H]1COP(=O)(O)OP(=O)(O)OP(=O)(O)OC[C@H]1O[C@@H](n2cnc3c(=O)[nH]c(N)nc32)[C@H](O)[C@@H]1O` [ARCA, 3′-O-methyl-m7GpppG], for which the fold of control result (activator, allosteric proposed) is “dsRNA synthesis from both capped and uncapped T7 S9 ssRNA was enhanced”.
For `Nc1nc2c(ncn2[C@@H]2O[C@H](COP(=O)(O)OP(=O)(O)OP(=O)(O)OC[C@H]3O[C@@H](n4cnc5c(=O)[nH]c(N)nc54)[C@H](O)[C@@H]3O)[C@@H](O)[C@H]2O)c(=O)[nH]1` [GpppG], the fold of control result (activator, allosteric proposed) is on record as “enhanced by the addition of all cap analogues, with GpppG showing the greatest enhancement”.
Still for that read-out and setting: in the case of `Nc1nc2c(ncn2[C@@H]2O[C@H](COP(=O)(O)OP(=O)(O)OP(=O)(O)OC[C@H]3O[C@@H](n4cnc5c(N)ncnc54)[C@H](O)[C@@H]3O)[C@@H](O)[C@H]2O)c(=O)[nH]1` [GpppA] it was “dsRNA synthesis from both capped and uncapped T7 S9 ssRNA was enhanced”.
In the case of `Nc1nc2c(ncn2[C@@H]2O[C@H](COP(=O)(O)O[C@H]3[C@@H](O)[C@H](n4cnc5c(N)ncnc54)O[C@@H]3CO)[C@@H](O)[C@H]2O)c(=O)[nH]1` [ApG], for the setting “priming dinucleotide”, the fold of control result was “GpG and ApG, which complement only the last nucleotide”.
Turning to `C[n+]1cn([C@@H]2O[C@H](COP(=O)(O)OP(=O)(O)OP(=O)(O)OC[C@H]3O[C@@H](n4cnc5c(=O)[nH]c(N)nc54)[C@H](O)[C@@H]3O)[C@@H](O)[C@H]2O)c2nc(N)[nH]c(=O)c21` [m7GpppG], the fold of control result (activator, allosteric proposed) was “dsRNA synthesis from both capped and uncapped T7 S9 ssRNA was enhanced”.
